Experiments:
mTORC1 = mTORC1 inhibitory activity in primary cultured cerebral neurons (S6K Thr389 phosphorylation); assay type: cell-based, SD mice; settings: for pThr389-S6K/S6K (% control): 24 hours
LC3-II = LC3-II levels in primary cultured cerebral neurons; assay type: cell-based, SD mice; settings: for effect on LC3-II: 500 nM or 100 nM, time course to 24 hours; for LC3-II (% control): 24 hours
Description: Specifically, primary neural cells were cultured from the cerebral cortex of E16 embryos of SD […] with a gestational age 16-day (Orient Bio). The extracted brain was separated into the left and right hemispheres, the meninges were removed, and the brains were treated with trypsin in Ca^2+/Mg^2+-free HBSS solution. […] The cells were seeded at a density of 19,000 cells/cm^2 onto 35 mm culture dishes coated with 50 μg/ml poly-D-Lysine (Sigma, P0899) and 1 μg/ml laminin (Invitrogen, 23017-015), and then maintained in neurobasal complete media supplemented with B27 (Gibco, 17504-044) in a 5% CO2 incubator.
Therefore, the evaluation of mTORC2 inhibitory activity in primary cultured cerebral cells was conducted using the same method as in Experimental Example 1, except that each compound was treated at concentrations of 500 nM or 100 nM for 24 hours. The time-dependent changes in Akt Ser473 phosphorylation, Akt Thr308 phosphorylation, and LC3-II levels were measured by Western blot analysis.

[1] = test system: tau aggregates in the brain of 5×FAD mice; test: Tau aggregate removal in the brain of 5×FAD mice (AT8 antibody staining); assay type: in vivo; settings: 5 mg/kg, 14 days
Description: (§1) In order to evaluate the efficacy of HN2210, HN2213, and HN2313 on Alzheimer's disease-related symptoms, specifically regarding 1) memory and cognitive impairment, 2) amyloid plaques, 3) neurofibrillary tangles (NFTs), and 4) brain inflammation, an in vivo efficacy assessment of HN2210, HN2213 and HN2313 was conducted using 5×FAD Alzheimer's disease model mice. The 5×FAD mice were purchased from Jackson Lab, USA (Cat #034840-JAX) and crossed once with C57bl6 mice to produce F1 heterozygous offspring (Het). The compound was administered via intraperitoneal injection to 6-month-old 5×FAD Het mice, followed by behavioral testing. The normal control mice, which were littermates of the 5×FAD Het mice, were aged to 6 months and received DMSO injection at the same volume.
In order to assess the neurofibrillary tangle removal effect of HN2210, HN2213, and HN2313 compounds in the brains of Alzheimer's disease model mice, the following test was conducted using 5×FAD-DMSO mice without compound treatment, 5×FAD mice treated with HN2210, HN2213, or HN2313 compounds, and normal mice as controls.
Specifically, AT8 antibody stains hyperphosphorylated Tau protein that constitutes tau aggregates. Therefore, tau aggregates formed in the hippocampus of 5×FAD mouse can be measured using immunostaining with the AT8 antibody. Brain slices were triple-stained with the AT8 antibody, MAP2 which is a neuronal marker, and DAPI to label nuclei, and the dentate gyrus region of the hippocampus was observed under a confocal scanning microscope.

mTORC2 = mTORC2 inhibitory activity in primary cultured cerebral neurons (Akt Ser473 phosphorylation); assay type: cell-based, SD mice; settings: for effect on Akt Ser473 phosphorylation / decrease in AKT Ser473 phosphorylation at 24 hours: 500 nM or 100 nM; for effect on Akt Ser473 phosphorylation / pSer473-AKT/AKT (% control): 24 hours
Description: Specifically, primary neural cells were cultured from the cerebral cortex of E16 embryos of SD mice with a gestational age 16-day (Orient Bio). The extracted brain was separated into the left and right hemispheres, the meninges were removed, and the brains were treated with trypsin in Ca^2+/Mg^2+-free HBSS solution.
The time-dependent changes in Akt Ser473 phosphorylation, Akt Thr308 phosphorylation, and LC3-II levels were measured by Western blot analysis.

[2] = test system: 5×FAD Alzheimer's disease model mice; test: Morris water maze test in 5×FAD mice (spatial perceptive ability); assay type: in vivo; settings: for Morris water maze time spent swimming in the target quadrant, % of the normal control level / Morris water maze time spent swimming in the target quadrant, increase compared to 5×FAD-DMSO mice: 14 days (FIG. 8c); for Morris water maze time spent in the target quadrant, % of the normal control level / Morris water maze time spent in the target quadrant, increase compared to 5×FAD-DMSO mice: 14 days (FIG. 6b)
Description: as §1
Specifically, a 50 cm deep water tank filled with water (25.0±1.0° C.) was divided into four equal quadrants, and a platform (12 cm diameter) was placed 3 mm below the water surface in the center of one quadrant. The training test consisted of a 1-minute free swimming practice without the platform foothold on the first day and a four days of training, during which the animal used environmental cues to locate the hidden platform foothold, with four trials per day. The following day, the platform was removed, and the time the experimental animal spent in the target quadrant was measured (probe trial). Videos were recorded and analyzed using the Ethovision video tracking system (Noldus Information Technology, Wageningen, Netherlands). The data included the time spent swimming in the target quadrant and the number of crossings over the virtual platform's previous position.

[3] = test system: 5×FAD Alzheimer's disease model mice; test: Passive avoidance test in 5×FAD mice (long-term memory); assay type: in vivo
Description: as §1
Specifically, to mice trained to avoid bright light three times daily, an electric foot shock (1 mA, 300 g) was applied for 3 seconds in a dark room at the same time on the next day. After 24 hours, the mice were placed again in the same room, and the avoidance response by light, that is, the time taken to move from the bright room to the dark room was measured. At 24 hours after habituation training, the mice were placed back into the bright room, and the latency time for entering the dark room was recorded over a period of 720 seconds.

[4] = 5 mg/kg, 14 days / 2 weeks (FIG. 7)

SMILES: O=C1c2cc(F)c(N3CCOCC3)cc2COc2cc3c(cc21)OCO3 [HN2210, 8-(morpholino)-9-fluoro[2]benzoxepino[3,4-f]-1,3-benzodioxol-11(6H)-one]
- effect on S6K Thr389 phosphorylation (mTORC1; 500 nM or 100 nM, time course to 24 hours (HN2304: from 6 to 24 hours)): reduced p70S6K Thr389 phosphorylation
- pThr389-S6K/S6K (% control) (mTORC1; 500 nM): 23 % control
- increase in S6K Thr389 phosphorylation at 3 hours (mTORC1; at 3 hours): 49%
- decrease in S6K Thr389 phosphorylation at 24 hours (mTORC1; at 24 hours): 77%
- effect on LC3-II (LC3-II): markedly increased
- LC3-II (% control) (LC3-II; 500 nM): 348 % control
- reduction of AT8 antibody signals in the dentate gyrus compared to the 5×FAD-DMSO group [1]: 61%
- effect on Akt Ser473 phosphorylation (mTORC2): reduce Akt Ser473 phosphorylation
- decrease in AKT Ser473 phosphorylation at 24 hours (mTORC2): 67%
- pSer473-AKT/AKT (% control) (mTORC2; 500 nM): 33 % control
- decrease in AKT Ser473 phosphorylation from 30 minutes to 6 hours (mTORC2; from 30 minutes to 6 hours): approximately 50%
- Morris water maze number of target crossings, % of the normal control level ([2]; 0.2 mg/kg, 14 days (FIG. 8b)): approximately 30%
- Morris water maze number of target crossings, increase compared to 5×FAD-DMSO mice ([2]; 0.2 mg/kg, 14 days (FIG. 8b)): 2.02 fold
- Morris water maze time spent swimming in the target quadrant, % of the normal control level ([2]; 0.2 mg/kg): approximately 87%
- Morris water maze time spent swimming in the target quadrant, increase compared to 5×FAD-DMSO mice ([2]; 0.2 mg/kg): 2.14 fold
- Morris water maze number of target crossings, % of the normal control level ([2]; 1 mg/kg, 14 days (FIG. 8b)): ~63%
- Morris water maze number of target crossings, increase compared to 5×FAD-DMSO mice ([2]; 1 mg/kg, 14 days (FIG. 8b)): 4.27 fold
- Morris water maze time spent swimming in the target quadrant, % of the normal control level ([2]; 1 mg/kg): ~85%
- Morris water maze time spent swimming in the target quadrant, increase compared to 5×FAD-DMSO mice ([2]; 1 mg/kg): 2.07 fold
- Morris water maze number of target crossings, % of the normal control level ([2]; 5 mg/kg, 14 days (FIG. 6a)): approximately 59%
- Morris water maze number of target crossings, increase compared to 5×FAD-DMSO mice ([2]; 5 mg/kg, 14 days (FIG. 6a)): 3.96 fold
- Morris water maze time spent in the target quadrant, % of the normal control level ([2]; 5 mg/kg): approximately 96%
- Morris water maze time spent in the target quadrant, increase compared to 5×FAD-DMSO mice ([2]; 5 mg/kg): 1.74 fold
- Morris water maze number of target crossings, % of the normal control level ([2]; 5 mg/kg, 14 days (FIG. 8b)): ~86%
- Morris water maze number of target crossings, increase compared to 5×FAD-DMSO mice ([2]; 5 mg/kg, 14 days (FIG. 8b)): 5.84 fold
- Morris water maze time spent swimming in the target quadrant, % of the normal control level ([2]; 5 mg/kg): ~96%
- Morris water maze time spent swimming in the target quadrant, increase compared to 5×FAD-DMSO mice ([2]; 5 mg/kg): 2.34 fold
- passive avoidance latency time, % of the normal control level ([3]; 0.2 mg/kg, 14 days (FIG. 8d)): approximately 56%
- passive avoidance latency time, increase compared to 5×FAD-DMSO mice ([3]; 0.2 mg/kg, 14 days (FIG. 8d)): 2.97 fold
- passive avoidance latency time, % of the normal control level ([3]; 1 mg/kg, 14 days (FIG. 8d)): ~83%
- passive avoidance latency time, increase compared to 5×FAD-DMSO mice ([3]; 1 mg/kg, 14 days (FIG. 8d)): 4.39 fold
- passive avoidance latency time, increase compared to 5×FAD-DMSO mice ([3]; 5 mg/kg, 14 days (FIG. 7)): 5.16 fold
- passive avoidance latency time, % of the normal control level ([3]; 5 mg/kg, 14 days (FIG. 8d)): ~97%
- passive avoidance latency time, increase compared to 5×FAD-DMSO mice ([3]; 5 mg/kg, 14 days (FIG. 8d)): 5.16 fold
- passive avoidance latency time, % of the normal control level [3, 4]: approximately 84%

SMILES: O=C1c2cc(F)c(NCc3ccccc3)cc2COc2cc3c(cc21)OCO3 [HN2213, 8-(benzylamino)-9-fluoro[2]benzoxepino[3,4-f]-1,3-benzodioxol-11(6H)-one]
- pThr389-S6K/S6K (% control) (mTORC1; 500 nM): 137 % control
- increase in S6K Thr389 phosphorylation in a time-dependent manner (mTORC1; time course to 24 hours): 37%
- effect on LC3-II (LC3-II): significantly increased
- LC3-II (% control) (LC3-II; 500 nM): 336 % control
- reduction of AT8 antibody signals in the dentate gyrus compared to the 5×FAD-DMSO group [1]: 59%
- selectivity for mTORC2 over mTORC1 (mTORC2): selective mTORC2 inhibitors
- effect on Akt Ser473 phosphorylation (mTORC2): reduce Akt Ser473 phosphorylation
- decrease in AKT Ser473 phosphorylation at 24 hours (mTORC2): 62%
- pSer473-AKT/AKT (% control) (mTORC2; 500 nM): 38 % control
- Morris water maze number of target crossings, % of the normal control level ([2]; 5 mg/kg, 14 days (FIG. 6a)): ~60%
- Morris water maze number of target crossings, increase compared to 5×FAD-DMSO mice ([2]; 5 mg/kg, 14 days (FIG. 6a)): 4 fold
- Morris water maze time spent in the target quadrant, % of the normal control level ([2]; 5 mg/kg): ~105%
- Morris water maze time spent in the target quadrant, increase compared to 5×FAD-DMSO mice ([2]; 5 mg/kg): 1.91 fold
- passive avoidance latency time, increase compared to 5×FAD-DMSO mice ([3]; 5 mg/kg, 14 days (FIG. 7)): 4.52 fold
- passive avoidance latency time, % of the normal control level [3, 4]: ~74%

SMILES: O=C1c2cc(F)c(NC3CCCC3)cc2COc2cc3c(cc21)OCO3 [HN2313, 8-(cyclopentylamino)-9-fluoro-[1,3]dioxolo[4′,5′:4,5]benzo[1,2-b]benzo[e]oxepin-11(6H)-one]
- pThr389-S6K/S6K (% control) (mTORC1; 100 nM): 141 % control
- increase in S6K Thr389 phosphorylation from 1 to 6 hours (mTORC1; from 1 to 6 hours): 2~3 fold
- LC3-II (% control) (LC3-II; 100 nM): 86 % control
- effect on LC3-II (LC3-II): not affected
- reduction of AT8 antibody signals in the dentate gyrus compared to the 5×FAD-DMSO group [1]: 49%
- selectivity for mTORC2 over mTORC1 (mTORC2): selective mTORC2 inhibitors
- pSer473-AKT/AKT (% control) (mTORC2; 100 nM): 34 % control
- effect on Akt Ser473 phosphorylation (mTORC2): reduce Akt Ser473 phosphorylation
- decrease in AKT Ser473 phosphorylation at 24 hours (mTORC2): 66%
- AKT Ser473 phosphorylation from 1 to 12 hours (mTORC2; from 1 to 12 hours): increased AKT Ser473 phosphorylation significantly
- Morris water maze number of target crossings, % of the normal control level ([2]; 5 mg/kg, 14 days (FIG. 6a)): ~82%
- Morris water maze number of target crossings, increase compared to 5×FAD-DMSO mice ([2]; 5 mg/kg, 14 days (FIG. 6a)): 5.5 fold
- Morris water maze time spent in the target quadrant, % of the normal control level ([2]; 5 mg/kg): ~84%
- Morris water maze time spent in the target quadrant, increase compared to 5×FAD-DMSO mice ([2]; 5 mg/kg): 1.53 fold
- passive avoidance latency time, increase compared to 5×FAD-DMSO mice ([3]; 5 mg/kg, 14 days (FIG. 7)): 5.86 fold
- passive avoidance latency time, % of the normal control level [3, 4]: ~96%
